{"source": "patent US20240084305A1", "about": "“MODULATORS OF CELL PROLIFERATION AND USES THEREOF” (Kumquat Biosciences Inc., priority 2020, published 2024)", "assay_type_in_all_cases": "cell-based", "key": {"[1]": {"test_system": "A427, ASPC1 and Ls513 cancer cell lines (KRAS G12D mutation)", "test": "cell growth inhibition in 3D suspension culture after lentiviral shRNA KRAS knockdown plus inhibitor, Bliss independence model", "conditions": "for degree of synergy of cell growth inhibition (excess over Bliss): all cell lines tested", "from_the_text": "This study explores the inhibition of a variety types (e.g., Kras G12D driven tumor cells) of cancer cells using a combination of nucleic-acid based Kras12D inhibitor and SOS inhibitor. Cell lines utilized include A427, a non-small cell lung cancer (NSCLC), ASPC1, a pancreatic cancer, and Ls513, colorectal cancer cell line. All three cell lines contain a KRAS G12D mutation. The cancer cell lines were adherently cultured in vitro and transduced with lentiviral particles packaged with shRNAs targeting either KRAS or negative control gene Luciferase.\nAmphotropic lentiviruses were produced by the co-transfection of 293FT cells and were packaged using the ViraPower lentiviral expression system (ThermoFisher Scientific). Lentiviral shRNA clones targeting luciferase (as sh-Ctrl) and KRAS were obtained from Sigma in the MISSION pLKO.1-puro vector with clone IDs as follows: shKRAS #1: TRCN0000033262, NM_033360.2-509s1c1, shKRAS #2: TRCN0000033260, NM_033360.2-407s1c1, and the Luciferase shRNA control plasmid DNA (Cat #SHC007, Sigma). Viral supernatants were filtered through a 0.45 µm filter and supplemented with […] of polybrene (Sigma) and added to 70% confluent cells pre-plated in six-well dishes. Plates were spinfected for 1 h under 600×g at 37° C. centrifugation. Cells were subsequently washed with PBS and allowed to rest 48 hours in fresh culture media at 37° C. Next, cells were reseeded as 3D suspensions (ultra-low adherent plates) into 384 well plates in RPMI medium containing 10% FBS. Approximately 24 hrs later, 10 uM SOS inhibitor as described herein or DMSO (as negative control) was added to the cell cultures for a period of about 5 days. […] The degree of synergy for the combination across cell lines was calculated by using the Bliss independence model. […] The greater the departure from Bliss indicates more profound synergy: <0 is no synergism, 0.05-0.1 is mild synergy, 0.1-0.2 moderate synergy, and >0.2 is robust synergy.\nAmphotropic lentiviruses were produced in the same manner as described in the preceding Example 6. 1 uM SHP2 inhibitor as described herein or DMSO (as negative control) was added to the cell cultures for a period of about 5 days. […] The degree of synergy for the combination across cell lines was calculated by using the Bliss independence model. […] The greater the departure from Bliss indicates more profound synergy: <0 is no synergism, 0.05-0.1 is mild synergy, 0.1-0.2 moderate synergy, and >0.2 is robust synergy.\nAmphotropic lentiviruses were produced in the same manner as described in the preceding Example 6. […] The concentration of the respective EGFR inhibitors utilized in this cell assay was chosen to be within the range corresponding to achievable exposures and pharmacokinetics of a recommended and clinically relevant doses applied in human. […] The degree of synergy for the combination across cell lines was calculated by using the Bliss independence model as exemplified in the preceding Example 6.\nAmphotropic lentiviruses were produced in the same manner as described in the preceding Example 6. 3 nM of Trametinib or DMSO (negative control) was added to the cell cultures for a period of about 5 days. The concentration of the MEK inhibitor utilized in this cell assay was chosen to be within the range corresponding to achievable exposures and pharmacokinetics of a recommended and clinical relevant dose applied in human. […] The degree of synergy for the combination across cell lines was calculated by using the Bliss independence model as exemplified in the preceding Example 6.\nAmphotropic lentiviruses were produced in the same manner as described in the preceding Example 6."}, "[2]": {"test_system": "A427, ASPC1, Panc04.03, Ls174T, Ls513, AGS and HEClA cancer cell lines (KRAS G12D mutation)", "test": "3D proliferation assay (ultra-low attachment plates), small molecule Kras12D inhibitor plus second inhibitor, Bliss independence model", "conditions": "for cell growth inhibition: across the cell line panel; for maximal cell growth inhibition, on average: average over cell line panel"}, "[3]": {"test_system": "A427, ASPC1, Panc04.03, Ls174T, Ls513, AGS and HEClA cancer cell lines (KRAS G12D mutation)", "test": "3D proliferation assay (ultra-low attachment plates), small molecule Kras12D inhibitor plus second inhibitor, Bliss independence model", "from_the_text": "This study explores the inhibition of a variety types of cancer cells (e.g., KRAS G12D driven tumor cells) using a combination of small molecule based Kras12D inhibitor and SOS inhibitor. Cell lines from multiple indications were utilized and include the A427 (a non-small cell lung cancer, “NSCLC”), ASPC1 and Panc04.03 (both pancreatic cancer), Ls174T and Ls513 (both colorectal cancer), AGS (a gastric cancer), and HEClA (an endometrial cancer cell line). All cell lines contain a KRAS G12D mutation. The seven cancer cell lines were cultured in vitro in a 3D proliferation assay where cells are grown in ultra-low attachment surface cell culture plates in RPMI medium containing ˜10% FBS. Cells were incubated with different concentrations of SOS inhibitor (e.g., 10 uM, 3 uM, or 1 uM) and with different concentrations of a Kras12D inhibitors (either Compound A, Compound B, or Compound C, e.g., 0.1 uM, 0.3 uM, 1.0 uM, 3.0 uM) for a period of 5 days. […] The degree of synergy for the combination across cell lines was calculated by using the Bliss independence model as described herein. […] The greater the departure from Bliss indicates more profound synergy: ≤0 indicates no synergism, 0.05-0.1 indicates mild synergy, 0.1-0.2 indicates moderate synergy, and >0.2 indicates robust synergy.\nThis study explores the inhibition of a variety types of cancer cells (e.g., KRAS G12D driven tumor cells) using a combination of small molecule based Kras12D inhibitor and SHP2 inhibitor. Cell lines from multiple indications were utilized and include the A427 (a non-small cell lung cancer, “NSCLC”), ASPC1 and Panc04.03 (both pancreatic cancer), Ls174T and Ls513 (both colorectal cancer), AGS (a gastric cancer), and HEClA (an endometrial cancer cell line). All cell lines contain a KRAS G12D mutation. The seven cancer cell lines were cultured in vitro in a 3D proliferation assay where cells are grown in ultra-low attachment surface cell culture plates in RPMI medium containing 10% FBS. Cells were incubated with different concentrations of SHP2 inhibitor (e.g., 10 uM, 3 uM, or 1 uM) and with different concentrations of a Kras12D inhibitors (either Compound A, Compound B, or Compound C, e.g., 0.1 uM, 0.3 uM, 1.0 uM, 3.0 uM) for a period of 5 days. […] The degree of synergy for the combination across cell lines was calculated by using the Bliss independence model as described in the preceding examples.\nThe study explores the inhibition of a variety types of cancer cells (e.g., KRAS G12D driven tumor cells) using a combination of small molecule based Kras12D inhibitor and EGFR inhibitor."}}}
{"smiles": "Cc1nc(NC(=O)N2CCC[C@H]2C(N)=O)sc1-c1ccnc(C(C)(C)C(F)(F)F)c1", "note": "[BYL719]", "values": [{"measurement": "cell growth inhibition", "setting": "[1]; 0.3 uM PI3K-alpha inhibitor (BYL719) in combination with nucleic-acid based Kras12D inhibitor", "result": "up to 87%"}, {"measurement": "degree of synergy of cell growth inhibition (excess over Bliss)", "setting": "[1]; 0.3 uM PI3K-alpha inhibitor (BYL719) in combination with nucleic-acid based Kras12D inhibitor, 5 days", "result": "little to moderate"}, {"measurement": "cell growth inhibition", "setting": "[2]; PI3Ka inhibitor (BYL719) as single agent, across its concentration range (up to 10 uM)", "result": "no more than 88%"}, {"measurement": "maximal cell growth inhibition, on average", "setting": "[2]; PI3Ka inhibitor (BYL719) as single agent", "result": "about 58%"}]}
{"smiles": "C[C@@H]1OCC2(CCN(c3cnc(Sc4ccnc(N)c4Cl)c(N)n3)CC2)[C@@H]1N", "note": "[SHP2 inhibitor, (3S,4S)-8-(6-amino-5-((2-amino-3-chloropyridin-4-yl)thio)pyrazin-2-yl)-3-methyl-2-oxa-8-azaspiro[4.5]decan-4-amine]", "values": [{"measurement": "degree of synergy of cell growth inhibition (excess over Bliss)", "setting": "[1]; 1 uM SHP2 inhibitor in combination with nucleic-acid based Kras12D inhibitor (shRNA KRAS), about 5 days", "result": "moderate (0.1-0.2 moderate synergy)"}, {"measurement": "cell growth inhibition", "setting": "[3]; SHP2 inhibitor as single agent, across its concentration range (up to 10 uM), across the cell line panel", "result": "no more than 75%"}, {"measurement": "maximal cell growth inhibition, on average", "setting": "[3]; SHP2 inhibitor as single agent, average over cell line panel", "result": "about 36%"}]}
{"smiles": "Cc1c(C#N)cccc1[C@@H](C)Nc1nnc(C)c2cnc(N3CCOCC3)cc12", "note": "[SOS inhibitor]", "values": [{"measurement": "degree of synergy of cell growth inhibition (excess over Bliss)", "setting": "[1]; 10 uM SOS inhibitor in combination with nucleic-acid based Kras12D inhibitor (shRNA KRAS), about 5 days", "result": "robust (>0.2 is robust synergy)"}, {"measurement": "cell growth inhibition", "setting": "[3]; SOS inhibitor as single agent, across its concentration range (up to 10 uM), across the cell line panel", "result": "no more than 50%"}, {"measurement": "cell growth inhibition", "setting": "[3]; SOS inhibitor tested alone (FIG. 12 cell lines)", "result": "no significant cell growth inhibition"}]}
{"smiles": "CC(=O)Nc1cccc(-n2c(=O)n(C3CC3)c(=O)c3c(Nc4ccc(I)cc4F)n(C)c(=O)c(C)c32)c1", "note": "[Trametinib, trametinib]", "values": [{"measurement": "inhibition at 0.003 µM", "setting": "[1]; 3 nM Trametinib in combination with nucleic-acid based Kras12D inhibitor", "result": "≤ 89", "unit": "%"}, {"measurement": "inhibition at 0.003 µM", "setting": "[1]; single agent, 3 nM Trametinib", "result": "< 50", "unit": "%"}, {"measurement": "cell growth inhibition", "setting": "[2]; MEK inhibitor as single agent, across its concentration range (up to 0.01 uM)", "result": "no more than 68%"}, {"measurement": "maximal cell growth inhibition, on average", "setting": "[2]; MEK inhibitor as single agent", "result": "about 42%"}]}
{"smiles": "CN(C)C/C=C/C(=O)Nc1cc2c(Nc3ccc(F)c(Cl)c3)ncnc2cc1O[C@H]1CCOC1", "note": "[afatinib]", "values": [{"measurement": "inhibition at 0.1 µM", "setting": "[1]; 0.1 uM in combination with nucleic-acid based Kras12D inhibitor, pancreatic, colorectal and NSCLC cell lines", "result": "≤ 75", "unit": "%"}, {"measurement": "inhibition at 0.1 µM", "setting": "[1]; 120 h, single agent, 0.1 uM, about 5 days", "result": "< 30", "unit": "%"}, {"measurement": "cell growth inhibition", "setting": "[2]; afatinib as single agent, across its concentration range (up to 1 uM)", "result": "no more than 86%"}]}
{"smiles": "C#Cc1cccc(Nc2ncnc3cc(OCCOC)c(OCCOC)cc23)c1", "note": "[erlotinib]", "values": [{"measurement": "inhibition at 3 µM", "setting": "[1]; 3 uM in combination with nucleic-acid based Kras12D inhibitor, pancreatic, colorectal and NSCLC cell lines", "result": "≤ 75", "unit": "%"}, {"measurement": "inhibition at 3 µM", "setting": "[1]; 120 h, single agent, 3 uM, about 5 days", "result": "< 30", "unit": "%"}, {"measurement": "cell growth inhibition", "setting": "[3]; erlotinib as single agent, across its concentration range (up to 10 uM), across the cell line panel", "result": "no more than 72%"}, {"measurement": "maximal cell growth inhibition response, on average", "setting": "[3]; erlotinib as single agent, average over cell line panel", "result": "under 50%"}]}
{"smiles": "CC(=O)c1c(C)c2cnc(Nc3ccc(N4CCNCC4)cn3)nc2n(C2CCCC2)c1=O", "note": "[palbociclib]", "values": [{"measurement": "cell growth inhibition", "setting": "[1]; 0.3 uM CDK4/6 inhibitor (Palbociclib) in combination with nucleic-acid based Kras12D inhibitor", "result": "up to 79%"}, {"measurement": "cell growth inhibition", "setting": "[2]; CDK4/6 inhibitor (palbociclib) as single agent, across its concentration range (up to 1 uM)", "result": "no more than 81%"}, {"measurement": "maximal cell growth inhibition, on average", "setting": "[2]; CDK4/6 inhibitor (palbociclib) as single agent", "result": "about 48%"}]}
